According to patent US8273761B2, “Tricyclic compound and medical use thereof” (Takeda Pharmaceutical Company Limited, priority 2006, dated 2012):

The molecules below were run against T1, human melatonin 2 receptors (human MT2 receptors) (Homo sapiens, UniProt P49286) (assay: Melatonin receptor binding inhibitory test (MT2)). Conditions: 2-[125I] Iodomelatonin 1 nM solution, membrane fraction of CHO-hMT2 cells, 25° C. for 2.5 hr.
T1 construct: expressed in transfected cells
T1 sequence (P49286 1-362): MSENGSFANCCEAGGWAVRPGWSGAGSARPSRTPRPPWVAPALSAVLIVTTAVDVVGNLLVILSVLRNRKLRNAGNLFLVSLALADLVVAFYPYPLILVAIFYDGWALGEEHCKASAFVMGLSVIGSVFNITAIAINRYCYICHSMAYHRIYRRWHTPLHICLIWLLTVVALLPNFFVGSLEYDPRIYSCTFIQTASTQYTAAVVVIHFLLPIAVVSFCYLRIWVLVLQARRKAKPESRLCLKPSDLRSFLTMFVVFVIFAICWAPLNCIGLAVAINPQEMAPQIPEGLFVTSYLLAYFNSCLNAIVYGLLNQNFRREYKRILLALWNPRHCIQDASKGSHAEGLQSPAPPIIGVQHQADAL
Protocol: Melatonin Receptor Binding Inhibitory Test (2) Preparation of CHO-hMT2 Cells Expressing Human Melatonin 2 Receptors A cDNA fragment (SEQ ID NO: 2) encoding full-length of human melatonin 2 receptors (human MT2 receptors) was incorporated into expression vector pCMV-Script (Stratagene, #212220) to give the plasmid that was pCMV-human MT2 receptors expression vector for animal cell expression. CHO-K1 cells (ATCC, #CCL-61) were plated at the concentration of 1.5×10^5 cells/cm^2 in a 6 well plate (ASAHI TECHNO GLASS), and cultured under the conditions of 37° C., 5% CO2 for 24 hr. For gene transfection, solution obtained by blending pCMV-human MT2 receptors expression vector (1.9 μg), Lipofectamine Transfection Reagent (Invitrogen, #18324-012) (11.3 μL) and Minimum Essential Medium Eagle (MEM) medium (Sigma, M8042) (93.8 μL), and reacting at room temperature for 20 min was added to the cells per one well. The transfected cells were cultured in MEM medium containing 10% FBS (Life Technology) and 300 μg/mL Geneticin (GIBCO, #10131), and the cell line that stably expressed the plasmid gene was selected. By a receptor binding assay using 2-[^125I] […] (3) Preparation of Cellular Membrane Fraction of CHO Cell (CHO-hMelR7 and CHO-hMT2) Stably Expressing Human MT1 and MT2 Receptors CHO-hMelR7 and CHO-hMT2 cells were plated using Cellfactory (Nunc, #170009) under the conditions of 1×10^8 cells/2000 mL/flask. The cells were grown to confluent, and recovered by the following method. As the medium for CHO-hMelR7 and CHO-hMT2, MEM α containing 10% FBS and penicillin/streptomycin was used. 300 ng/mL of geneticin was added to the medium for CHO-hMT2. The medium was discarded, cells were washed twice with 200 mL of EDTA/PBS(-), 200 mL of EDTA/PBS(-) was further added, and the cells were stood still at room temperature for 20 min until they were released. The cells were recovered in four 50 mL tubes (Becton Dickinson, #352070), and centrifuged at 1,500 rpm for 10 min at 4° C. using a low speed cooling centrifuge (Hitachi, CF7D2). The supernatant was discarded, the pellets in the four tubes were suspended in 10 mL of PBS(-), and combined in one tube (Becton Dickinson, #352070). The mixture was further centrifuged at 1,500 rpm for 10 min at 4° C., and the obtained pellets were suspended in 20 mL of ice-cooled homogenizing buffer [10 mM NaHCO3, 5 mM EDTA, Protease inhibitor Complete (Roche), pH 7.4]. The cell suspension was homogenized 3 times using a polytron homogenizer at 20,000 rpm for 30 sec. The obtained homogenate was centrifuged (2,000 rpm, 10 min, 4° C.) using a low speed cooling centrifuge. The supernatant was recovered in an ultracentrifugation tube and ultracentrifuged (40,000 rpm, 60 min, 4° C.) using an ultracentrifuge (Beckman, […]). To the obtained pellets was added a suspending buffer [50 mM Tris-HCl, 1 mM EDTA, Protease inhibitor Complete (Roche), pH 7.4], and the pellets were suspended by pipetting. The protein concentration of this suspension was measured, diluted to 2 mg/mL to give cellular membrane fractions of CHO-hMelR7 and CHO-hMT2 cells. […] Protein was quantified using BCA protein assay kit (Pierce) with BSA as the standard. (4) Preparation of Membrane Fraction Suspension Immediately before use, the membrane fractions of CHO-hMelR7 and CHO-hMT2 cells of the above-mentioned (3) were diluted 20-fold with assay buffer (50 mM Tris-HCl, pH 7.7). (5) Preparation of 2-[^125I] […] (6) Binding Reaction The assay buffer (80 μL) of the above-mentioned (4) was added to each well of a 96-well plate (type 3363, Corning). […] (7) Measurement Using a cell harvester (PerkinElmer), the binding reaction mixture in each well of the 96-well plate was transferred to a treated (immersed in 50 mM Tris, pH 7.7 in advance) filter plate (UniFilter GF/C, PerkinElmer) and filtered.

IC50, ≤ 100 nM:
CCc1nn2ccc3oc(C)cc3c2c1CCNC(C)=O [Example 39, N-[2-(2-ethyl-8-methylfuro[3,2-c]pyrazolo[1,5-a]pyridin-1-yl)ethyl]acetamide]
CCCC(=O)NCCC1CCc2cnc3c(c21)CCO3 (stereo not drawn) [Example 25, N-[2-(1,6,7,8-tetrahydro-2H-cyclopenta[d]furo[2,3-b]pyridin-8-yl)ethyl]butanamide]
CC(=O)NCCc1cnn2ccc3c(c12)CCO3 [Example 3, N-[2-(8,9-dihydrofuro[3,2-c]pyrazolo[1,5-a]pyridin-1-yl)ethyl]acetamide]
CCC(=O)NCCC1CCc2cnc3c(c21)CCO3 (stereo not drawn) [Example 22, N-[2-(1,6,7,8-tetrahydro-2H-cyclopenta[d]furo[2,3-b]pyridin-8-yl)ethyl]propanamide]
CCC(=O)NCC(C)c1c(CC)nn2ccc3c(c12)CCO3 (stereo not drawn) [Example 38, N-[2-(2-ethyl-8,9-dihydrofuro[3,2-c]pyrazolo[1,5-a]pyridin-1-yl)propyl]propanamide]
CCCC(=O)NCCc1cnn2ccc3c(c12)CCO3 [Example 5, N-[2-(8,9-dihydrofuro[3,2-c]pyrazolo[1,5-a]pyridin-1-yl)ethyl]butanamide]
CC(=O)NCCC1CCc2cnc3c(c21)CCO3 (single isomer, unassigned) [Example 20, optically active N-[2-(1,6,7,8-tetrahydro-2H-cyclopenta[d]furo[2,3-b]pyridin-8-yl)ethyl]acetamide]
CC(=O)NCCc1c(-c2ccccc2)cn2ccc3c(c12)CCO3 [Example 17, N-[2-(8-phenyl-1,2-dihydrofuro[2,3-g]indolizin-9-yl)ethyl]acetamide]
CCC(=O)NCCC1=CCc2cnc3c(c21)CCO3 [Example 29, N-[2-(1,6-dihydro-2H-cyclopenta[d]furo[2,3-b]pyridin-8-yl)ethyl]propanamide]
CC(=O)NCCC1=C(C(C)C)Cc2cnc3c(c21)CCO3 [Example 30, N-[2-(7-isopropyl-1,6-dihydro-2H-cyclopenta[d]furo[2,3-b]pyridin-8-yl)ethyl]acetamide]
CC(=O)NCCc1c(-c2ccc(F)cc2)nn2ccc3c(c12)CCO3 [Example 15, N-{2-[2-(4-fluorophenyl)-8,9-dihydrofuro[3,2-c]pyrazolo[1,5-a]pyridin-1-yl]ethyl}acetamide]
CCC(=O)NCCc1cnn2ccc3c(c12)CCO3 [Example 4, N-[2-(8,9-dihydrofuro[3,2-c]pyrazolo[1,5-a]pyridin-1-yl)ethyl]propanamide]
CCC(=O)NCCc1c(-c2ccccc2)nn2ccc3occc3c12 [Example 2, N-[2-(2-phenylfuro[3,2-c]pyrazolo[1,5-a]pyridin-1-yl)ethyl]propanamide]
CCC(=O)NCCC1=C(C(C)C)Cc2cnc3c(c21)CCO3 [Example 31, N-[2-(7-isopropyl-1,6-dihydro-2H-cyclopenta[d]furo[2,3-b]pyridin-8-yl)ethyl]propanamide]
CCc1nn2ccc3c(c2c1C(C)CNC(C)=O)CCO3 (stereo not drawn) [Example 37, N-[2-(2-ethyl-8,9-dihydrofuro[3,2-c]pyrazolo[1,5-a]pyridin-1-yl)propyl]acetamide]
CCC(=O)NCCc1c(-c2ccc(F)cc2)nn2ccc3c(c12)CCO3 [Example 16, N-{2-[2-(4-fluorophenyl)-8,9-dihydrofuro[3,2-c]pyrazolo[1,5-a]pyridin-1-yl]ethyl}propanamide]
CCC(=O)NCCc1c(-c2ccccc2)nn2ccc3c(c12)CCO3 [Example 8, N-[2-(2-phenyl-8,9-dihydrofuro[3,2-c]pyrazolo[1,5-a]pyridin-1-yl)ethyl]propanamide]
CCC(=O)NCCC1CCc2cnc3c(c21)CCO3 (single isomer, unassigned) [Example 23, optically active N-[2-(1,6,7,8-tetrahydro-2H-cyclopenta[d]furo[2,3-b]pyridin-8-yl)ethyl]propanamide]
